Patent US10656158B2, “Identification of enzyme activity through determination of its localization” (International Business Machines Corporation, priority 2014, dated 2020)

Molecular target: T1, MurA enzyme (Bacillus subtilis, UniProt P70965)
T1 construct: expressed in transfected cells
Assay: MurA-CFP enzyme localization (condensation) by fluorescence imaging in B. subtilis cells
Format: cell-based
Conditions: for state of MurA-CFP enzyme in the cell (localized or diffuse): exposure during exponential growth, 5 mM fosfomycin or 0.5 μg ml^−1 vancomycin, fluorescence imaging, 30° C.
Experimental: Enzymatic activity of the MurA enzyme in Bacillus subtilis was measured in the presence of enzyme condensation modulating agents. MurA enzyme is involved in an enzymatic biosynthetic pathway that catalyzes a biosynthetic precursor of peptidoglycan, a polymer of the cell wall. The agents that were assessed for effects on MurA were antibiotics fosfomycin and vancomycin.
The B. subtilis cells were cultivated to express a MurA-CFP conjugate protein (MurA-cyan fluorescent protein) under its natural promoter. After one hour in exponential growth, 1 ml of cell culture was centrifuged. The supernatant was collected and added to 2 ml of melted […] agarose solution in LB. The resulting 1.2% solution of molten agar/culture supernatant was supplemented with 0.5 μg ml^−1 FM 4-64 dye (N-(3-triethylammoniumpropyl)-4-(6-(4-(diethylamino) phenyl) hexatrienyl) pyridinium dibromide). Then 5 mM fosfomycin or 0.5 μg ml^−1 vancomycin was added to the well of a culture slide (wells 18 mm diameter×1.75 mm depth) and covered with a glass slide.
After cooling, the cover glass was removed and two air pockets were cut out of the agarose with a 15 ml tube, leaving a 3-5 mm agar bridge in the center of the well. Seven microliters of the remaining culture was spread over the agar, partially dried and sealed with cover glass. After cooling, the slide was removed and two air pockets were cut out of the agar leaving a 3-5 mm agar bridge in the center of the well. Cells were suspended in LB with FM4-64 dye (0.5 μg ml^−1) and were added at the agar bridge and covered by a glass coverslip. To prevent drying during the experiment, 50% glycerol was applied to the region of contact between the slide and the coverslip.
The slide was equilibrated in an environmentally controlled chamber at 30° C. (Precision Control Weather Station) for at least 10 min prior to visualization. […] After 2 hours of imaging, MurA-CFP expressing cells stopped growing, but the condensation of the enzyme could be detected by a bright fluorescent spot.

T1 sequence (P70965 whole entry): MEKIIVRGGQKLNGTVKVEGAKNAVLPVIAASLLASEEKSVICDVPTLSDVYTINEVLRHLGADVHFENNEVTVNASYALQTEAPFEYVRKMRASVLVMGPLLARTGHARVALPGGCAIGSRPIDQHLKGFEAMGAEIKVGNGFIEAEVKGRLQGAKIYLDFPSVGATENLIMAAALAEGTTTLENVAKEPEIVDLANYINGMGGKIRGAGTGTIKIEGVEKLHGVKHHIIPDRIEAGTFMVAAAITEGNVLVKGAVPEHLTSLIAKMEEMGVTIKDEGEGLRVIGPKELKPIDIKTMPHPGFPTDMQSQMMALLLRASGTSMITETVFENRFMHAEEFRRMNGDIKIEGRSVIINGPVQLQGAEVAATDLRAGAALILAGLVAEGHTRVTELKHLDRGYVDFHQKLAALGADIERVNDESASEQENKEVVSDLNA

SMILES	areas of localized MurA-CFP (added to the cells during stationary growth before MurA began to localize (not shown))	state of MurA-CFP enzyme in the cell (localized or diffuse)
C[C@@H]1O[C@@H]1P(=O)(O)O [Fosfomycin, fosfomycin]	not observed	localized
CN[C@H](CC(C)C)C(=O)N[C@H]1C(=O)N[C@@H](CC(N)=O)C(=O)N[C@H]2C(=O)N[C@H]3C(=O)N[C@H](C(=O)N[C@H](C(=O)O)c4cc(O)cc(O)c4-c4cc3ccc4O)[C@H](O)c3ccc(c(Cl)c3)Oc3cc2cc(c3O[C@@H]2O[C@H](CO)[C@@H](O)[C@H](O)[C@H]2O[C@H]2C[C@](C)(N)[C@H](O)[C@H](C)O2)Oc2ccc(cc2Cl)[C@H]1O [Vancomycin, vancomycin]	–	diffuse
